Assay results reported in patent US20100029689A1, “PHOSPHODIESTERASE 4 INHIBITORS” (MEMORY PHARMACEUTICALS CORPORATION, priority 2008, published 2010).

What follows are compounds tested on rats (assay: Radial arm maze task in rats, in vivo test for learning and memory). Details: male Sprague-Dawley rats, 0.1 mg/kg, i.p., compared to control (p<0.01).
Design: species or system rat
Description: The test was performed as previously described (Zhang, H.-T., Crissman, A. M., Dorairaj, N. R., Chandler, L. J., and O'Donnell, J. M., Neuropsychopharmacology, 2000, 23, 198-204.). Five days after initial housing, rats (male Sprague-Dawley (Harlan) weighing 250 to 350 g) were placed in the eight-arm radial maze (each arm was 60×10×12 cm high; the maze was elevated 70 cm above the floor) for acclimation for two days. Rats were then placed individually in the center of the maze for 5 minutes with food pellets placed close to the food wells, and then, the next day, in the wells at the end of the arms; 2 sessions a day were conducted. Next, four randomly selected arms were then baited with one pellet of food each. The rat was restricted to the center platform (26 cm in diameter) for 15 seconds and then allowed to move freely throughout the maze until it collected all pellets of food or 10 minutes passed, whichever came first. Four parameters were recorded: 1) working memory errors, i.e., entries into baited arms that had already been visited during the same trial; 2) reference memory errors, i.e., entries into unbaited arms; 3) total arm entries; and 4) the test duration (seconds), i.e., the time spent in the collection of all the pellets in the maze. […]
(§1) All data were analyzed by analyses of variance (ANOVA); individual comparisons were made using Kewman-Keuls tests. […]
C[C@]12N[C@H](Cc3ccccc31)c1ccccc12 [MK-801] was tested, and the “frequencies of working and reference memory errors” value was “increased the frequencies of both working and reference memory errors”.

What follows are compounds tested on rats (assay: Passive avoidance in rats, in vivo test for learning and memory). Details: male Sprague-Dawley rats, 0.1 mg/kg, 24 hours after electric shock, compared to vehicle (p<0.001).
Design: species or system rat
Description: The test was performed as previously described (Zhang, H.-T., Crissman, A. M., Dorairaj, N. R., Chandler, L. J., and O'Donnell, J. M., Neuropsychopharmacology, 2000, 23, 198-204.). The apparatus (Model E10-16SC, Coulboum Instruments, Allentown, Pa.) consisted of a two-compartment chamber with an illuminated compartment connected to a darkened compartment by a guillotine door. The floor of the darkened compartment consisted of stainless steel rods through which an electric foot-shock could be delivered from a constant current source. All experimental groups were first habituated to the apparatus the day before the start of the experiment. During the training, the rat (Male Sprague-Dawley (Harlan) weighing 250 to 350 g) was placed in the illuminated compartment facing away from the closed guillotine door for 1 minute before the door was raised. The latency for entering the darkened compartment was recorded. After the rat entered the darkened compartment, the door was closed and a 0.5 mA electric shock was administered for 3 seconds. […] The latency for entering the darkened compartment was recorded for up to 180 seconds, at which time the trial was terminated.
as §1
In the case of C[C@]12N[C@H](Cc3ccccc31)c1ccccc12 [MK-801], the “latency for entering the darkened compartment (retention test)” value is reported as “markedly reduced this latency”.

What follows are compounds tested against T1, hPDE-4D6 (Homo sapiens, UniProt Q08499) (assay: In vitro measurement of type 4 phosphodiesterase inhibition activity (hPDE-4D6, [3H]cAMP/alumina column assay)). Details: recombinant hPDE-4D6 from Sf9 cell lysate, 3 uM cAMP, 12 min, room temperature; read-out: PDE4D6 IC50.
T1 construct: made in house; host or cells: Sf9 insect cells (baculovirus)
T1 sequence (Q08499 1-518 isoform Q08499-8): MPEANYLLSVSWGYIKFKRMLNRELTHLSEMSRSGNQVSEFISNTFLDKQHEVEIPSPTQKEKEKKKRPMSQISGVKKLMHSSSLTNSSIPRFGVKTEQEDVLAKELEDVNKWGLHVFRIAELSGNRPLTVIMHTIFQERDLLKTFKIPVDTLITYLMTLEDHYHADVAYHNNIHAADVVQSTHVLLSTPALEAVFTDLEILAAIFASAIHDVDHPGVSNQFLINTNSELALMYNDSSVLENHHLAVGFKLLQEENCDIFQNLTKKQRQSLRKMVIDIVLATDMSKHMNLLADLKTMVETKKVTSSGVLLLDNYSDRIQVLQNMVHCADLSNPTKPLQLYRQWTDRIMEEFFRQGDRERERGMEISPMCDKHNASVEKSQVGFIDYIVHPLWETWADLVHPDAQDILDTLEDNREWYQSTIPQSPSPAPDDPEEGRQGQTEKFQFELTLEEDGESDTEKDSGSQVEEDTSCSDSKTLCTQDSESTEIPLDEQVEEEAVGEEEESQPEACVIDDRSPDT
Format: biochemical
Description: Human PDE4 was obtained from baculovirus-infected Sf9 cells that expressed the recombinant enzyme. The cDNA encoding hPDE-4D6 was subcloned into a baculovirus vector.
Insect cells (Sf9) were infected with the baculovirus and cells were cultured until protein was expressed. The baculovirus-infected cells were lysed and the lysate was used as source of hPDE-4D6 enzyme. The enzyme was partially purified using a DEAE ion exchange chromatography. This procedure can be repeated using cDNA encoding other PDE-4 enzymes.
Type 4 phosphodiesterases convert cyclic adenosine monophosphate (cAMP) to 5′-adenosine monophosphate (5′-AMP). Nucleotidase converts 5′-AMP to adenosine. Therefore the combined activity of PDE4 and nucleotidase converts cAMP to adenosine. Adenosine is readily separated from cAMP by neutral alumina columns. Phosphodiesterase inhibitors block the conversion of cAMP to adenosine in this assay; consequently, PDE4 inhibitors cause a decrease in adenosine.
Cell lysates (40 ul) expressing hPDE-4D6 were combined with 50 ul of assay mix and 10 μl of inhibitors and incubated for 12 min at room temperature. Final concentrations of assay components were: 0.4 ug enzyme, 10 mM Tris-HCl (pH 7.5), 1 mM MgCl2, 3 uM cAMP, 0.002 U 5′-nucleotidase, and 3×10^4 cpm of [3H]cAMP. The reaction was stopped by adding 100 μl of boiling 5mN HCl. An aliquot of 75 μl of reaction mixture was transferred from each well to alumina columns (Multiplate; Millipore). Labeled adenosine was eluted into an OptiPlate by spinning at 2000 rpm for 2 min; 150 μl per well of scintillation fluid was added to the OptiPlate. The plate was sealed, shaken for about 30 min, and cpm of [^3H]adenosine was determined using a Wallac Triflux®.
All test compounds are dissolved in 100% DMSO and diluted into the assay such that the final concentration of DMSO is 0.1%.
A decrease in adenosine concentration is indicative of inhibition of PDE activity. […] Nonlinear regression software (Assay Explorer@) was used to estimate pIC50 values.
Compound CCOc1cc(N(Cc2cnns2)c2ccc(C(=O)O)cc2)ccc1OC(F)F [Example 281] has an IC50 of 0.16 nM.
In the case of COc1ccc(N(Cc2cnco2)c2ccc(C(=O)O)cc2)cc1OC1CC1 [Example 189], the IC50 is reported as 2.3 nM.
Compound O=C(O)Cc1cccc(N(Cc2cncnc2)c2ccc(OC(F)F)c(OC(F)F)c2)c1 [Example 139] has an IC50 of 53 nM.
O=C(O)c1ccc(N(Cc2cnco2)c2ccc(OC(F)F)c(OC3CCC3)c2)cc1 [Example 182] showed an IC50 of 3.8 nM.
Work on CCOc1cc(N(Cc2cnco2)c2ccc(C(=O)O)cc2)ccc1OC(F)(F)F [Example 217] yielded an IC50 of 12 nM.
In the case of COc1ccc(N(Cc2cncs2)c2ccc(C(=O)O)cc2)cc1OC [Example 138], the IC50 is reported as 61 nM.
O=C(O)c1ccc(N(Cc2cnccn2)c2ccc(OC(F)F)c(OC(F)F)c2)cc1 [Example 142] was tested, and the IC50 was 289 nM.
With O=C(O)c1ccc(Nc2ccc(OC(F)F)c(OC(F)F)c2)cc1 [Example 295] the IC50 was 108 nM.
COc1cc(N(Cc2cccnc2)c2ccc(C(=O)O)cc2)ccc1OC(F)F [Example 124] was tested, and the IC50 was 11.2 nM.
For CCOc1cc(N(Cc2cncs2)c2ccc(C(=O)O)cc2)ccc1OC [Example 130], the IC50 was 8.6 nM.
Compound O=C(O)c1ccc(N(Cc2cncs2)c2ccc(OC(F)F)c(OC(F)F)c2)cc1 [Example 59] has an IC50 of 5.69 nM.
With COc1ccc(N(Cc2cccnn2)c2ccc(C(=O)O)cc2)cc1OC1CCCC1 [Example 47] the IC50 was 128 nM.
Work on CCOc1cc(Nc2ccc(C(=O)O)cc2)ccc1OC(F)F [Example 294] yielded an IC50 of 34.9 nM.
For COc1ccc(N(Cc2cnco2)c2ccc(C(=O)O)cc2)cc1OC(F)(F)F [Example 232], the IC50 was 6.94 nM.
CCOc1cc(N(Cc2cnc(C)s2)c2ccc(C(=O)O)cc2)ccc1OC(F)F [Example 225] gave an IC50 of 4.38 nM.
Compound O=C(O)c1ccc(N(Cc2cnco2)c2ccc(OC(F)F)c(OC(F)F)c2)cc1 [Example 141] has an IC50 of 27 nM.
Compound COc1cc(N(Cc2cncs2)c2cccc(C(=O)O)c2)ccc1OC(F)F [Example 116] has an IC50 of 7 nM.
Work on O=C(O)c1ccc(N(Cc2cncnc2)c2ccc(OC(F)F)c(OC(F)F)c2)cc1 [Example 80] yielded an IC50 of 6.17 nM.
For COc1ccc(N(Cc2cncs2)c2ccc(S(C)(=O)=O)cc2)cc1O[C@@H]1CCOC1 [Example 111], the IC50 was 29 nM.
COc1ccc(N(Cc2cncs2)c2ccc(C(=O)O)cc2)cc1OC(C)C [Example 131] gave an IC50 of 17.3 nM.
In the case of COc1ccc(N(Cc2cncs2)c2ccc(C(=O)O)cc2)cc1OCC1CC1 [Example 72], the IC50 is reported as 25.1 nM.
For CCOc1cc(N(Cc2cocn2)c2ccc(C(=O)O)cc2)ccc1OC(F)F [Example 190], the IC50 was 20 nM.
With CCOc1cc(N(Cc2cncnc2)c2ccc(C(=O)O)cc2)ccc1OC(F)F [Example 143] the IC50 was 7.5 nM.
For O=C(O)Cc1ccc(N(Cc2cncnc2)c2ccc(OC(F)F)c(OC(F)F)c2)cc1 [Example 137], the IC50 was 139 nM.
COc1ccc(N(Cc2cncnc2)c2cccc(C(=O)O)c2)cc1OC1CC1 [Example 218] gave an IC50 of 1.08 nM.
In the case of CCOc1cc(N(Cc2cccnc2)c2ccc(C(=O)O)cc2)ccc1OC(F)F [Example 14], the IC50 is reported as 2.54 nM.
